Literature values, collected in patent publication US20260263387A1, “INTRANASAL EPINEPHRINE FORMULATIONS AND METHODS OF USE” (ARS Pharmaceuticals Operations, Inc., priority 2024, published 2026).

SMILES: CNC[C@H](O)c1ccc(O)c(O)c1 [epinephrine, (R)-4-(1-Hydroxy-2-(methylamino)ethyl)benzene-1,2-diol]
- blood level of epinephrine (intranasal dose level of 2.5 mg and below (0.3 mg, 0.6 mg, 1.25 mg, or 2.5 mg)): no blood level
- significant systemic absorption of epinephrine via the IN route (intranasal, Srisawat): observed only at 5 mg
